Reference: patent US20090281099A1, “SUBSTITUTED PYRAZINONE DERIVATIVES FOR USE AS A MEDICINE” (priority 2006, published 2009)

Legend:
[1] = biological target: T1, hα2A receptor (Homo sapiens, UniProt P08913); assay: Radioligand binding experiment for hα2A receptor ([3H]-raulwolscine, CHO cell membranes); conditions: [3H]raulwolscine 1 nM, membranes of CHO cells transfected with human α2A receptor; read-out: h-α2A pIC50 (converted)
T1 construct: expressed in transfected cells
T1 sequence (P08913 1-465): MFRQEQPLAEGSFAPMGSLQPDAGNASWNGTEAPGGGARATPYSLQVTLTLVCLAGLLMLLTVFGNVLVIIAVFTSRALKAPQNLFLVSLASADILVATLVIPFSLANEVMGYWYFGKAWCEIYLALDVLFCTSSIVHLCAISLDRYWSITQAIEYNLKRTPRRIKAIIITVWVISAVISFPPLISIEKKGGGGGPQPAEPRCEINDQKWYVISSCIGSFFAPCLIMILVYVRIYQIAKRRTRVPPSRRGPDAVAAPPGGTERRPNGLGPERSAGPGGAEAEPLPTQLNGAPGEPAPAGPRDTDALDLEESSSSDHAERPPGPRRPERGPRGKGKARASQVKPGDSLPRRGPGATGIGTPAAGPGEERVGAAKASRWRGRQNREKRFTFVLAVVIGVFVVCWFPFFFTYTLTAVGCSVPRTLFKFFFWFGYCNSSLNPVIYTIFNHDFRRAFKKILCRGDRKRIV

[2] = biological target: T2, hα2C receptor (Homo sapiens, UniProt P18825); assay: Radioligand binding experiment for α2C-adrenoceptor ([3H]-raulwolscine, CHO cell membranes); conditions: [3H]raulwolscine 1 nM, membranes of CHO cells transfected with human α2C receptor; read-out: h-α2C pIC50 (converted)
T2 construct: expressed in transfected cells
T2 sequence (P18825 1-462): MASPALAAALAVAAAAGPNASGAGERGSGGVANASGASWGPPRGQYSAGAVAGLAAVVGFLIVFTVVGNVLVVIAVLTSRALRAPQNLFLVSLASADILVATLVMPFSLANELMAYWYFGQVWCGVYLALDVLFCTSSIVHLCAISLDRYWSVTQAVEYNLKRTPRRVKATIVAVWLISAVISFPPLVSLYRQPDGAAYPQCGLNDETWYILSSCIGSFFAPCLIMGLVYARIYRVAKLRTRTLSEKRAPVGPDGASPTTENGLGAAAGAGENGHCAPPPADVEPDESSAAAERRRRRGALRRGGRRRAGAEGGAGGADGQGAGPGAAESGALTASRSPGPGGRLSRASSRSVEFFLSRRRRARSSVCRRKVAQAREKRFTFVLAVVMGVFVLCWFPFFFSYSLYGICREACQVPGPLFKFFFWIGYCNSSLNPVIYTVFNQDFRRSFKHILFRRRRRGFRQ

[3] = biological target: T3, 5HT-Transporter (Homo sapiens, UniProt P31645); assay: Binding experiment for the 5HT-transporter ([3H]paroxetine, human platelet membranes); conditions: [3H]paroxetine 0.5 nM, read-out: h-5HTT pIC50 (converted)
T3 construct: Human platelet membranes (Oceanix Biosciences Corporation, Hanover, Md., USA) were thawed; tissue Oceanix Biosciences Corporation; host or cells: human platelet membranes
T3 sequence (P31645 whole entry): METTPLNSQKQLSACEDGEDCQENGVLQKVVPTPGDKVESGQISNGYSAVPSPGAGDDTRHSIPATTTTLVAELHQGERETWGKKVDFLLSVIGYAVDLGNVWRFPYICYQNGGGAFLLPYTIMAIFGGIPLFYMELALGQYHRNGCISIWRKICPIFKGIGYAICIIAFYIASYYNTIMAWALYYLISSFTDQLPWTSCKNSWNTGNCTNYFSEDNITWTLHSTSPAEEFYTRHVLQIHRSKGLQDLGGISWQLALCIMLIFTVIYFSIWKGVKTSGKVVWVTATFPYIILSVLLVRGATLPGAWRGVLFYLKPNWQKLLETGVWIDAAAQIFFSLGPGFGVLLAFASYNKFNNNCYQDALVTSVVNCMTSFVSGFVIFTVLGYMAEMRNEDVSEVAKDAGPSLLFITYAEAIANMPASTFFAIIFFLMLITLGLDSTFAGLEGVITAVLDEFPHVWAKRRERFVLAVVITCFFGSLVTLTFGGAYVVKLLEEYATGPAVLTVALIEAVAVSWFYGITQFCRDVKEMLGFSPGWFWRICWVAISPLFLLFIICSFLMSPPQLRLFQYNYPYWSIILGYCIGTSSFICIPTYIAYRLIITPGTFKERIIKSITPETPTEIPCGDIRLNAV

Compound	IC50 [1]	IC50 [2]	IC50 [3]
O=C(Cn1ccnc(NC2CCN(CCOc3ccccc3)CC2)c1=O)NCCCc1ccccc1 [Compound 1-17]	316 nM	12.6 nM	2510 nM
CCCCN(Cc1ccccc1)C(=O)Cn1ccnc(NC2CCN(CCOc3ccccc3)CC2)c1=O [Compound 1-18]	126 nM	6.31 nM	> 10000 nM
O=c1c(NC2CCN(CCOc3ccccc3)CC2)nccn1-c1ccc(CN2CCCCC2)cc1 [Compound 2-5]	100 nM	1 nM	3980 nM
O=C(Cn1ccnc(NC2CCN(CCOc3ccccc3)CC2)c1=O)NCc1ccc(F)cc1 [Compound 1-14]	251 nM	2.51 nM	7940 nM
O=C1c2ccccc2C(=O)N1CC#CCn1ccnc(NC2CCN(CCOc3ccccc3)CC2)c1=O [Compound 2-16]	501 nM	7.94 nM	1260 nM
CN(C)C(=O)Cn1ccnc(NC2CCN(CCOc3ccccc3)CC2)c1=O [Compound 1-5]	501 nM	39.8 nM	> 10000 nM
CN(C)CCCn1ccnc(NC2CCN(CCOc3ccccc3)CC2)c1=O [Compound 1-4]	200 nM	3.98 nM	> 10000 nM
CN(C(=O)Cn1ccnc(NC2CCN(CCOc3ccccc3)CC2)c1=O)C1CCCCC1 [Compound 1-6]	126 nM	2 nM	7940 nM
O=C(Cn1ccnc(NC2CCN(CCOc3ccccc3)CC2)c1=O)N(CCN1CCCC1)Cc1ccccc1 [Compound 1-23]	31.6 nM	0.501 nM	–
O=C(Cn1ccnc(NC2CCN(CCOc3ccccc3)CC2)c1=O)N1CCC(Cc2ccccc2)CC1 [Compound 2-7]	158 nM	5.01 nM	1000 nM
O=C(Cn1ccnc(NC2CCN(CCOc3ccccc3)CC2)c1=O)NCCc1ccccc1 [Compound 1-15]	251 nM	3.16 nM	–
O=c1c(NC2CCN(CCOc3ccccc3)CC2)nccn1-c1cccc(NCc2ccccc2)c1 [Compound 1-12]	50.1 nM	3.98 nM	2510 nM
CC(C)(C)OC(=O)NCCCn1ccnc(NC2CCN(CCOc3ccccc3)CC2)c1=O [Compound 1-20]	126 nM	2.51 nM	6310 nM
O=c1c(NC2CCN(CCOc3ccccc3)CC2)nccn1-c1ccc(N2CCC(N3CCCC3)CC2)cc1 [Compound 2-10]	126 nM	7.94 nM	3160 nM
O=C(Cn1ccnc(NC2CCN(CCOc3ccccc3)CC2)c1=O)N1CCCCC1 [Compound 2-3]	251 nM	7.94 nM	> 10000 nM
CN(Cc1ccccc1)C(=O)Cn1ccnc(NC2CCN(CCOc3ccccc3)CC2)c1=O [Compound 1-13]	126 nM	3.98 nM	5010 nM
NCCCn1ccnc(NC2CCN(CCOc3ccccc3)CC2)c1=O [Compound 1-1]	126 nM	7.94 nM	> 10000 nM
O=C(Cn1ccnc(NC2CCN(CCOc3ccccc3)CC2)c1=O)N1CCC(C(F)(F)F)CC1 [Compound 2-6]	100 nM	3.98 nM	> 10000 nM
O=C(Cn1ccnc(NC2CCN(CCOc3ccccc3)CC2)c1=O)N1CCC(N2CCCC2)CC1 [Compound 2-8]	79.4 nM	2.51 nM	> 10000 nM
O=c1c(NC2CCN(CCOc3ccccc3)CC2)nccn1CCN1CCCCC1 [Compound 2-1]	100 nM	2.51 nM	–
O=C(Cn1ccnc(NC2CCN(CCOc3ccccc3)CC2)c1=O)Nc1ccc(F)cc1 [Compound 1-10]	158 nM	3.98 nM	–

Results, then the compound that gave them:

IC50 [1]	IC50 [2]	IC50 [3]	Compound
158 nM	7.94 nM	2510 nM	O=c1c(NC2CCN(CCOc3ccccc3)CC2)nccn1Cc1ccccc1Br [Compound 4-1]
501 nM	501 nM	> 10000 nM	C=CCn1ccnc(N2CCN(CCOc3ccc(F)cc3)CC2)c1=O [Compound 13-5]
631 nM	398 nM	> 10000 nM	CCCn1ccnc(N2CCN(CCOc3ccc(F)cc3)CC2)c1=O [Compound 13-2]
158 nM	158 nM	794 nM	COc1ccc(-c2nnc(Cn3ccnc(N4CCN(CCOc5ccc(F)cc5)CC4)c3=O)o2)cc1 [Compound 12-4]
501 nM	251 nM	> 10000 nM	O=c1[nH]ccnc1N1CCN(CCOc2ccc(F)cc2)CC1 [Compound 13-1]
158 nM	15.8 nM	1580 nM	O=c1c(NC2CCN(CCOc3ccccc3)CC2)nccn1Cc1cccc(Br)c1 [Compound 4-2]
39.8 nM	10 nM	5010 nM	O=C(Cn1ccnc(NC2CCN(CCOc3ccccc3)CC2)c1=O)c1ccccc1 [Compound 4-6]
158 nM	158 nM	3980 nM	O=C(Cn1ccnc(N2CCN(CCOc3ccc(F)cc3)CC2)c1=O)c1ccccc1 [Compound 11-5]
200 nM	10 nM	–	CC(C)(C)C(=O)Cn1ccnc(NC2CCN(CCOc3ccccc3)CC2)c1=O [Compound 5-6]
251 nM	631 nM	2000 nM	O=c1c(N2CCN(CCOc3ccc(F)cc3)CC2)nccn1CCCc1ccccc1 [Compound 11-2]
158 nM	63.1 nM	1260 nM	NCc1ccc(Cn2ccnc(N3CCN(CCOc4ccc(F)cc4)CC3)c2=O)cc1 [Compound 7-1]
200 nM	251 nM	> 10000 nM	O=c1c(N2CCN(CCOc3ccc(F)cc3)CC2)nccn1Cc1ccco1 [Compound 12-1]
126 nM	126 nM	2000 nM	O=c1c(N2CCN(CCOc3ccc(F)cc3)CC2)nccn1Cc1ccc2ccccc2c1 [Compound 11-8]
398 nM	39.8 nM	> 10000 nM	O=c1c(NC2CCN(CCOc3ccccc3)CC2)nccn1Cc1ccncc1 [Compound 6-2]
158 nM	25.1 nM	> 10000 nM	COC(=O)Cn1ccnc(NC2CCN(CCOc3ccccc3)CC2)c1=O [Compound 3-2]
1260 nM	1000 nM	> 10000 nM	COCCCn1ccnc(N2CCN(CCOc3ccc(F)cc3)CC2)c1=O [Compound 9-1]
100 nM	20 nM	794 nM	O=c1c(NC2CCN(CCOc3ccccc3)CC2)nccn1Cc1ccc(Br)cc1 [Compound 4-3]
398 nM	251 nM	2000 nM	CC(C)(C)OC(=O)NCc1ccc(Cn2ccnc(N3CCN(CCOc4ccc(F)cc4)CC3)c2=O)cc1 [Compound 7-3]
251 nM	200 nM	1580 nM	O=c1c(N2CCN(CCOc3ccc(F)cc3)CC2)nccn1C/C=C/c1ccccc1 [Compound 11-4]
251 nM	316 nM	7940 nM	O=c1c(N2CCN(CCOc3ccc(F)cc3)CC2)nccn1CC(c1ccccc1)c1ccccc1 [Compound 11-3]
200 nM	79.4 nM	6310 nM	O=c1c(N2CCN(CCOc3ccc(F)cc3)CC2)nccn1Cc1ccc(Cl)s1 [Compound 12-2]
316 nM	501 nM	> 10000 nM	CN(C)C(=O)Cn1ccnc(N2CCN(CCOc3ccc(F)cc3)CC2)c1=O [Compound 7-2]
631 nM	100 nM	7940 nM	O=c1c(N2CCN(CCOc3ccc(F)cc3)CC2)nccn1CCN1CCCCC1 [Compound 8-1]
79.4 nM	20 nM	794 nM	O=c1c(NC2CCN(CCOc3ccccc3)CC2)nccn1Cc1ccc2ccccc2c1 [Compound 4-7]
200 nM	251 nM	2510 nM	O=c1c(N2CCN(CCOc3ccc(F)cc3)CC2)nccn1CCOc1ccccc1 [Compound 9-2]
158 nM	15.8 nM	6310 nM	O=c1c(NC2CCN(CCOc3ccccc3)CC2)nccn1CCc1ccccc1 [Compound 4-4]
100 nM	15.8 nM	> 10000 nM	CCCn1ccnc(NC2CCN(CCOc3ccccc3)CC2)c1=O [Compound 5-2]
501 nM	251 nM	7940 nM	O=c1c(N2CCN(CCOc3ccc(F)cc3)CC2)nccn1CC1CCCCC1 [Compound 13-3]
